We go through two compounds from BindingDB's records for patent US12247004 (Oxford Drug Design, 2025).

One experiment has as its target Isoleucine--tRNA ligase (Escherichia coli (strain K12), UniProt P00956). In words: Enzyme Inhibition Assay.
In the next experiment the target is Leucine--tRNA ligase (Escherichia coli (strain K12), UniProt P07813). In words: Enzyme Inhibition Assay.
Leucine--tRNA ligase, sequence (P07813 whole entry): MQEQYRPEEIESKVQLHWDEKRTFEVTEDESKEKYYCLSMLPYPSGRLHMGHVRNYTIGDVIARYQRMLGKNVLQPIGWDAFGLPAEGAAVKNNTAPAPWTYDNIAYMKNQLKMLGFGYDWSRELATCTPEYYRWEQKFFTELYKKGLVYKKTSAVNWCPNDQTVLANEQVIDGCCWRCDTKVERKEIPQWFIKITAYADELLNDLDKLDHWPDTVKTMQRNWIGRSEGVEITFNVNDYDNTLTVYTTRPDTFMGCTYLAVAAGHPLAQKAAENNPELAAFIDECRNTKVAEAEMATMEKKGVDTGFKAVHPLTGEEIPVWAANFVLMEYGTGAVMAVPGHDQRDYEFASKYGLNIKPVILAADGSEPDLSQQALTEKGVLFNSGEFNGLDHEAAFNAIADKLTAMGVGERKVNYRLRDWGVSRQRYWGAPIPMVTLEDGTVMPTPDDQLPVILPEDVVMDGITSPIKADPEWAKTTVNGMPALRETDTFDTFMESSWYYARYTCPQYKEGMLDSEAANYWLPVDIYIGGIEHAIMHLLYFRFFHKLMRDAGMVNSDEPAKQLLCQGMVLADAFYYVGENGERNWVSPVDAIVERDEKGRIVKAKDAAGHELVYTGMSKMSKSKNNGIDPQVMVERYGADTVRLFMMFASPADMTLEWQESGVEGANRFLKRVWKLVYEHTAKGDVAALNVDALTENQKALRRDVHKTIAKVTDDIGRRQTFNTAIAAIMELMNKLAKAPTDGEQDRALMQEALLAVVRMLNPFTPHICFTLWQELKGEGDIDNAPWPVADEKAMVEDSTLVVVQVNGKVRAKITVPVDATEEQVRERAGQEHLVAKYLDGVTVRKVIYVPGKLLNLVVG

Isoleucine--tRNA ligase, sequence (P00956 whole entry): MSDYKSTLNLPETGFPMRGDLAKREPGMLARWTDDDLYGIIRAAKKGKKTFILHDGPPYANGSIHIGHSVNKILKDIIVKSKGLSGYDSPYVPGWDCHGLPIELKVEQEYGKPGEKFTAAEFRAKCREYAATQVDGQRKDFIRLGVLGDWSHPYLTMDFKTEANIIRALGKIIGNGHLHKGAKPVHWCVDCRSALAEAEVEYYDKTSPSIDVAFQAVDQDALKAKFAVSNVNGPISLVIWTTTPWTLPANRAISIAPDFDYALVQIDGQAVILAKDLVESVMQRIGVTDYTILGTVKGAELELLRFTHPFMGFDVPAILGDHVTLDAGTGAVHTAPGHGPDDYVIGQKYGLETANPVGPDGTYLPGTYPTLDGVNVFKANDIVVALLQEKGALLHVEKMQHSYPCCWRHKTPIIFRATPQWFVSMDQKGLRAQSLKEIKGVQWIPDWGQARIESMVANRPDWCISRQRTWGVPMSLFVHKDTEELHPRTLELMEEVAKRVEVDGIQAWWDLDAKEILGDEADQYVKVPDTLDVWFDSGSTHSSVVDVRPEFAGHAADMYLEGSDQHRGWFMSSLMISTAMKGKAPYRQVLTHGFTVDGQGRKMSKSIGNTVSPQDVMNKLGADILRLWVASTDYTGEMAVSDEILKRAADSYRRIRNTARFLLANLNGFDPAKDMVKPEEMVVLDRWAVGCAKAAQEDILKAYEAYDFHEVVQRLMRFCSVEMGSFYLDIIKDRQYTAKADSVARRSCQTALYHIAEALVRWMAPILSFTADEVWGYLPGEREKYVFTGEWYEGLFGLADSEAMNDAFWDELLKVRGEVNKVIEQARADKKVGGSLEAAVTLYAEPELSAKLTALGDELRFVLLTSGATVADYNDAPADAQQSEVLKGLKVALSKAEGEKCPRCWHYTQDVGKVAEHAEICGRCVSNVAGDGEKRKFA
Protocol for Isoleucine--tRNA ligase: Single Point Percentage InhibitionThe activity of the pathogenic aaRSs was monitored by measuring AMP production using the commercial kit AMP-Glo (Promega, Madison, USA).Ligand stock solutions were prepared in 100% DMSO at 10 mM concentration. An assay buffer consisting of 100 mM Tris HCl pH 7.6, 40 mM MgCl, 20 mM KCl and 150 mM NaCl was prepared in dH2O. […] A substrate solution was also prepared in assay buffer with 50 mM L-leucine, 10 mM ATP and 100 mg/mL tRNA.

On to `CC[C@H](C)[C@H](N)C(=O)N=S(N)(=O)c1ccc2ccccc2c1` (some centres not stated) [US12247004, Compound ANASIA-030], for which the IC50 against Isoleucine--tRNA ligase came out at 9.59 µM.

For the compound `CC(C)C[C@H](N)C(=O)N=S(N)(=O)c1cc[nH]n1` (some centres not stated) [US12247004, Compound ANASIA-064], on Leucine--tRNA ligase, the IC50 stood at 2.17 µM.
